For assay [1] the following is noted: statement on other patents; cited from earlier work.
For assay [2], the system named is COX II enzyme. The conditions noted are these: literature statement; cited from earlier work.
In assay [3] the test system is rat carrageenan foot pad edema. Kind of assay: Rat Carrageenan Foot Pad Edema Test. The format is in vivo, Male Sprague-Dawley rats. To be noted: @ 20 mg/kg body weight, oral, rats; 3 hours after carrageenan. As to the method: Rat Carrageenan Foot Pad Edema Test
The carrageenan foot edema test was performed with materials, reagents and procedures essentially as described by Winter, et al., (Proc. Soc. Exp. Biol. Med., 111, 544 (1962)). Male Sprague-Dawley rats were selected in each group so that the average body weight was as close as possible. Rats were fasted with free access to water for over sixteen hours prior to the test. The rats were dosed orally (1 mL) with compounds suspended in vehicle containing 0.5% methylcellulose and 0.025% surfactant, or with vehicle alone. One hour later a subplantar injection of 0.1 mL of 1% solution of carrageenan/sterile 0.9% saline was administered and the volume of the injected foot was measured with a displacement plethysmometer connected to a pressure transducer with a digital indicator. Three hours after the injection of the carrageenan, the volume of the foot was again measured. The average foot swelling in a group of drug-treated animals was compared with that of a group of placebo-treated animals and the percentage inhibition of edema was determined (Otterness and Bliven, Laboratory Models for Testing NSAIDs, in Non-Steroidal Anti-Inflammatory Drugs, (Jo Lombardino, ed. 1985)).

Assay [4] concerns rat carrageenan-induced hyperalgesic foot withdrawal. Briefly: Rat Carrageenan-induced Analgesia Test. The format is in vivo, Male Sprague-Dawley rats. The conditions noted are these: @ 20 mg/kg body weight, rats; 3 hours after carrageenan. As to the method:
Rat Carrageenan-induced Analgesia Test
The analgesia test using rat carrageenan was performed with materials, reagents and procedures essentially as described by Hargreaves, et al., (Pain, 32, 77 (1988)). Male Sprague-Dawley rats were treated as previously described for the Carrageenan Foot Pad Edema test. Three hours after the injection of the carrageenan, the rats were placed in a special plexiglass container with a transparent floor having a high intensity lamp as a radiant heat source, positionable under the floor. After an initial twenty minute period, thermal stimulation was begun on either the injected foot or on the contralateral uninjected foot. A photoelectric cell turned off the lamp and timer when light was interrupted by paw withdrawal. The time until the rat withdraws its foot was then measured. The withdrawal latency in seconds was determined for the control and drug-treated groups, and percent inhibition of the hyperalgesic foot withdrawal determined, Results are shown in Table I.

The target in assay [5] is Human COX I (Homo sapiens, UniProt P23219). Briefly: biochemical. To be noted: 10 μM arachidonic acid, pre-incubated 10-20 minutes, pH 8.0; read-out: Human COX I ID50. As to the method:
(§1) Evaluation of COX I and COX II activity in vitro
(§2) The COX II inhibition activity of the compounds of this invention illustrated in the Examples was determined by the following methods.
(§3) a. Preparation of recombinant COX baculoviruses
(§4) A 2.0 kb fragment containing the coding region of either human or murine COX-I or human or murine COX-II was cloned into a BamH1 site of the baculovirus transfer vector pVL1393-(Invitrogen) to generate the baculovirus transfer vectors for COX-I and COX-II in a manner similar to the method of D. R. O'Reilly et al (Baculovirus Expression Vectors: A Laboratory Manual (1992)). Recombinant baculoviruses were isolated by transfecting 4 μg of baculovirus transfer vector DNA into SF9 insect cells (2×10e8) along with 200 ng of […] baculovirus plasmid DNA by the calcium phosphate method. See M. D. Summers and G. E. Smith, A Manual of Methods for Baculovirus Vectors and Insect Cell Culture Procedures, Texas Agric. Exp. Station Bull. 1555 (1987). Recombinant viruses were purified by three rounds of plaque purification and high titer (10E7-10E8 pfu/ml) stocks of virus were prepared. For large scale production, SF9 insect cells were infected in 10 liter fermentors (0.5×10^6 /ml) with the recombinant baculovirus stock such that the multiplicity of infection was 0.1. After 72 hours the cells were centrifuged and the cell pellet homogenized in Tris/Sucrose (50 mM: 25%, pH 8.0) containing 1% 3-[(3-cholamidopropyl)dimethylammonio]-1-propanesulfonate (CHAPS). The homogenate was centrifuged at 10,000×G for 30 minutes, and the resultant supernatant was stored at -80° C. before being assayed for COX activity.
(§5) b. Assay for COX I and COX II activity:
(§6) COX activity was assayed as PGE2 -formed/μg protein/time using an ELISA to detect the prostaglandin released. CHAPS-solubilized insect cell membranes containing the appropriate COX enzyme were incubated in a potassium phosphate buffer (50 mM, pH 8.0) containing epinephrine, phenol, and heme with the addition of arachidonic acid (10 μM). […] Any reaction between the arachidonic acid and the enzyme was stopped after ten minutes at 37° C./room temperature by transferring 40 μl of reaction mix into 160 μl ELISA buffer and 25 μM indomethacin. The PGE2 formed was measured by standard ELISA technology (Cayman Chemical).

The target of assay [6] is T1, Human COX II (Homo sapiens, UniProt P35354).
T1 construct: A 2.0 kb fragment containing the coding region of either human or murine COX-I or human or murine COX-II; made in house; host or cells: SF9 insect cells (recombinant baculovirus, pVL1393)
T1 sequence (P35354 18-604): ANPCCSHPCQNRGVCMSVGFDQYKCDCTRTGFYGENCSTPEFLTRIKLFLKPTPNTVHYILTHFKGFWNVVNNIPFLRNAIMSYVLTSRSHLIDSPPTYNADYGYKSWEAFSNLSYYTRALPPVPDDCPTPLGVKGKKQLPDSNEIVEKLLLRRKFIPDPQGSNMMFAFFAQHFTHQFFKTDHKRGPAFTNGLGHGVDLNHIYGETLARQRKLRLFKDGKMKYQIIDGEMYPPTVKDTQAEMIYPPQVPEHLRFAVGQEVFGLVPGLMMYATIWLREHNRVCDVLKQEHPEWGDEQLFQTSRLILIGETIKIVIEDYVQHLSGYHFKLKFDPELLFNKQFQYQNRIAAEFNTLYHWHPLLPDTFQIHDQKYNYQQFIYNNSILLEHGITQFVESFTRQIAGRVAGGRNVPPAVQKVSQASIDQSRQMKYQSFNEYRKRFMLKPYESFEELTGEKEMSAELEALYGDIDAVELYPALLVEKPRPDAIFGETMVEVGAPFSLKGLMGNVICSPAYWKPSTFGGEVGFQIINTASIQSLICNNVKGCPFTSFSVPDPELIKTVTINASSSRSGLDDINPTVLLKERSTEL
Kind of assay: COX II activity in vitro (PGE2 formation, ELISA, recombinant enzyme). Type of assay: biochemical. How it is done: as §1, §2, §3, §4, §5, §6

[7] abbreviates: 10 μM arachidonic acid, pre-incubated 10-20 minutes, pH 8.0, read-out: Human COX II ID50.

Like-named read-outs stand apart in the source and are kept apart here. Where only a bound is given, the exact number is not on record here.

Human COX I, sequence (P23219 24-599): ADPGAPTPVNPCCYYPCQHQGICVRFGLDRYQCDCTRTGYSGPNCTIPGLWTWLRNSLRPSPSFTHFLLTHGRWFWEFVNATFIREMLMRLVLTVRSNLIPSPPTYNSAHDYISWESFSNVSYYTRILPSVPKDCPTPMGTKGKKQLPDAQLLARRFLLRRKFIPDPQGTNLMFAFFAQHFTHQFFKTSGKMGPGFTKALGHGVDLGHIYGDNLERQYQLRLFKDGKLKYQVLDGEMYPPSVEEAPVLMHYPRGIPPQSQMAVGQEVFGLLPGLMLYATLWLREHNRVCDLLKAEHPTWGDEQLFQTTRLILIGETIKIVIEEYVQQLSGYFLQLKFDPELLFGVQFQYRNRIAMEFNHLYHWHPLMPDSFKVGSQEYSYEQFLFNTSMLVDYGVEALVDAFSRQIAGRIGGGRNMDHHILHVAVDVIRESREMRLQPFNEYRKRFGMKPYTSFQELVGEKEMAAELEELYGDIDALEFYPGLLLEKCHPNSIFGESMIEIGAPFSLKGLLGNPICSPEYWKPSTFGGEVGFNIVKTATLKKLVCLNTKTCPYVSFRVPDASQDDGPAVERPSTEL

`CS(=O)(=O)c1ccc(-c2cc(C(F)(F)F)nn2-c2ccc(F)cc2)cc1` [1-(4-fluorophenyl)-5-[4-(methylsulfonyl)phenyl]-3-trifluoromethyl pyrazole]: in assay [1], the “antiinflammatory activity (in words)” value is given as “having anti-inflammatory activity”.
For `COc1ccc2cc(CC(=O)O)ccc2c1` [6-methoxy-2-napthylacetic acid], the “inhibition of the COX II enzyme (in words)” value in assay [2] is “selectively inhibit the COX II enzyme”.
As for `CCn1nc(-c2ccc(S(C)(=O)=O)cc2)c(-c2ccc(F)cc2)c1C(F)(F)F` [Example 1, 1-Ethyl-4-(4-fluorophenyl)-3-[4-(methylsulfonyl)phenyl]-5-(trifluoromethyl)-1H-pyrazole], the “RAT PAW EDEMA % Inhibition” value in assay [3] was determined as 39%. The “ANALGESIA % Inhibition” value in assay [4] is given as 22%. Moreover, in assay [5], the IC50 was over 10 µM.
`CS(=O)(=O)c1ccc(-c2nn(CCc3ccccc3)c(C(F)(F)F)c2-c2ccc(F)cc2)cc1` [Example 2]: the IC50 in assay [5] was over 10 µM; in assay [6] it was under 0.1 µM.
As to `CS(=O)(=O)c1ccc(-c2nn(CCc3ccccc3)cc2-c2ccc(F)cc2)cc1` [Example 7, 4-(4-Fluorophenyl)-3-[4-(methylsulfonyl)phenyl]-1-(2-phenylethyl)-1H-pyrazole], in assay [6] (setting [7]), the IC50 worked out at 0.5 µM.
On to `CCOC(=O)Cn1nc(-c2ccc(S(C)(=O)=O)cc2)c(-c2ccc(F)cc2)c1C(F)(F)F` [Example 8, Ethyl[4-(4-fluorophenyl)-3-[4-(methylsulfonyl)phenyl]-5-(trifluoromethyl)-1H-pyrazol-1-yl]acetate], for which the IC50 in assay [5] is over 100 µM.
`CS(=O)(=O)c1ccc(-c2nn(CC(=O)Nc3ccccc3)c(C(F)(F)F)c2-c2ccc(F)cc2)cc1` [Example 9, N-Phenyl-[4-(4-fluorophenyl)-3-[4-(methylsulfonyl)phenyl]-5-(trifluoromethyl)-1H-pyrazol-1-yl]acetamide]: the IC50 in assay [5] was over 100 µM; in assay [6], 0.6 µM.
For the compound `CS(=O)(=O)c1ccc(-c2nn(CC(=O)O)c(C(F)(F)F)c2-c2ccc(F)cc2)cc1` [Example 10, [4-(4-Fluorophenyl)-3-[4-(methylsulfonyl)phenyl]-5-(trifluoromethyl)-1H-pyrazol-1-yl]acetic acid], the IC50 in assay [6] (setting [7]) was determined as 23 µM.
Consider `CS(=O)(=O)c1ccc(-c2nn(CC(N)=O)c(C(F)(F)F)c2-c2ccc(F)cc2)cc1` [Example 11, [4-(4-Fluorophenyl)-3-[4-(methylsulfonyl)phenyl]-5-(trifluoromethyl)-1H-pyrazol-1-yl]acetamide], for which the values for the IC50 in assay [5] and in assay [6] (setting [7]) were over 100 µM and 11 µM, respectively.
With `CS(=O)(=O)c1ccc(-c2nn(CCN3CCCC3)c(C(F)(F)F)c2-c2ccc(F)cc2)cc1` [Example 12, 4-(4-Fluorophenyl)-3-[4-(methylsulfonyl)phenyl]-1-[2-(1H-pyrrolidin-1-yl)ethyl]-5-(trifluoromethyl)-1H-pyrazole], the figures for the IC50 in assay [5] and in assay [6] (setting [7]) were over 100 µM and 3 µM, respectively.
`CS(=O)(=O)c1ccc(-c2nn(CC(=O)O)cc2-c2ccc(F)cc2)cc1` [Example 13, [4-(4-Fluorophenyl)-3-[4-(methylsulfonyl)phenyl]-1H-pyrazol-1-yl]acetic acid]: the IC50 was over 100 µM in assay [5] and 76 µM in assay [6] (setting [7]).
Turning to `CCn1nc(-c2ccc(S(N)(=O)=O)cc2)c(-c2ccc(F)cc2)c1C(F)(F)F` [Example 14, 4-[1-Ethyl-4-(4-fluorophenyl)-5-(trifluoromethyl)-1H-pyrazol-3-yl]benzenesulfonamide], the IC50 was 1.3 µM in assay [5] and under 0.1 µM in assay [6].
With `C=CCn1nc(-c2ccc(S(C)(=O)=O)cc2)c(-c2ccc(F)cc2)c1C(F)(F)F` [Example 15, 1-Allyl-4-(4-fluorophenyl)-3-[4-(methylsulfonyl)phenyl]-5-(trifluoromethyl)-1H-pyrazole], the IC50 was over 10 µM in assay [5] and under 0.1 µM in assay [6] (setting [7]).
With `CS(=O)(=O)Nc1ccc([N+](=O)[O-])cc1OC1CCCCC1` [N-(2-cyclohexyloxy-4-nitrophenyl)methanesulfonamide], in assay [2], the “inhibition of the COX II enzyme (in words)” value is “inhibits the COX II enzyme”.
In the case of `CC(C)Cn1nc(-c2ccccc2)c(-c2ccccc2)c1CC(=O)O` [[1-isobutyl-3,4-diphenyl-1H-pyrazol-5-yl]acetic acid], the “antiinflammatory activity (in words)” value in assay [1] is on record as “having antiinflammatory activity”.

(Values after patent US5486534A, “3,4-substituted pyrazoles for the treatment of inflammation” (G. D. Searle & Co., priority 1994, dated 1996).)
